Experimental data taken from patent publication US20230293629A1, “METHODS FOR ATTENUATING RELEASE OF INFLAMMATORY MEDIATORS AND PEPTIDES USEFUL THEREIN” (BIOMARCK PHARMACEUTICALS LTD., priority 2006, published 2023).
Where a SMILES comes first, the peptide text is derived from it. The star is where a group is joined. Myristoyl = CCCCCCCCCCCCCC(=O)*

Columns and labels:
HL-60 clone 15 cells = assay: PMA-stimulated EPO release from HL-60 clone 15 cells; format: cell-based, human; details: 50 μM test peptide, two hour incubation with 100 nM PMA; HL-60 clone 15 cells
Method: (§1) Three types of human leukocyte cell lines, specifically the promyelocytic cell line HL-60 clone 15, the monocytic cell line U937, and the lymphocyte natural killer cell line NK-92 were purchased from American Type Culture Collection (ATCC; Rockville, MD). HL-60 clone 15 cells (ATCC CRL-1964) were maintained in medium consisting of RPMI 1640 with L-glutamine supplemented with 10% heat-inactivated fetal bovine serum (Gibco; Invitrogen Co., Carlsbad, CA), 50 IU/ml penicillin, 50 μg/mL streptomycin, and 25 mM HEPES buffer, pH 7.8, at 37° C. in an atmosphere containing 5% CO2. Final differentiation to an eosinophil-like phenotype was initiated by culturing cells at 5×10^5 cells/ml in the above medium containing 0.5 mM butyric acid (Sigma-Aldrich Co.) for 5 days as previously described (Tiffany H L, Li F, Rosenberg H F. Hyperglycosylation of eosinophil ribonucleases in a promyelocytic leukemia cell line and in differentiated peripheral blood progenitor cells. J Leukoc Biol 1995; 58:49-54; Tiffany H L, Alkhatib G, Combadiere C, Berger E A, Murphy P M. CC chemokine receptors 1 and 3 are differentially regulated by IL-5 during maturation of eosinophilic HL-60 cells. J Immunol 1998; 160:1385-1392). U937 cells (ATCC CRL-1593.2) were grown at 37° C. in an atmosphere of 5% CO2 in complete medium consisting of RPMI 1640 with L-glutamine supplemented with 10% FBS, 50 IU/ml penicillin, and 50 μg/mL streptomycin. NK-92 cells (ATCC CRL-2407) were maintained in alpha-MEM medium (Sigma-Aldrich Co.) supplemented with 20% FBS, 100 U/ml of interleukin-2 (IL-2) (Chemicon International, Inc., Temecula, CA), 5×10^−5 M of 2-mercaptoethanol, 50 IU/mL penicillin, and 50 μg/ml streptomycin at 37° C. in an atmosphere containing 5% CO2. Cell morphology was judged by assessment of Wright-Giemsa-stained cells. Viability of cells harvested for experiments was assessed by trypan blue exclusion and populations of cells with viability >95% were used.
(§2) HL-60 clone 15, U937, and NK-92 cells were washed and resuspended at 2.5×10^6 cells/ml in phenol red-free RPMI-1640 (Cellgro; Mediatech, Inc.) for all degranulation assays. Aliquots of cells in 15 ml tubes were preincubated with indicated concentrations of MANS, RNS, or a test peptide for 10 min at 37° C. The cells then were stimulated with PMA for up to 2 hr. A control reference (PMA control reference) was established for each cell type using HL-60 clone 15, U937, and NK-92 cells, respectively, which were washed and resuspended at 2.5×10^6 cells/ml in phenol red-free RPMI-1640 and stimulated with PMA but in the absence of MANS, RNS, or a test peptide for the same time periods. The reaction was terminated by placing tubes on ice and centrifuging cells at 400 g for 5 min at 4° C.
(§3) For measurements of released MPO from neutrophils and released lysozyme from U937 cells, we were able to quantify secretion by using as standards human MPO and egg white […], respectively. For released EPO from HL-60 clone 15 cells and for released granzyme from NK-92 cells, no standards were available to use for quantification. […] To measure intracellular EPO in HL-60 clone 15 cells and intracellular granzyme in NK-92 cells, appropriate aliquots of 0.1% triton X-100-lysed cells were taken for quantification of intracellular granule proteins as described below. All treatments were expressed as percentage of control to minimize variability between cultures.
EPO activity released by HL-60 clone 15 cells was assayed using TMB according to a previously established technique (Lacy P, Mahmudi-Azer S, Bablitz B, Hagen S C, Velazquez J R, Man S F, Moqbel R. Rapid mobilization of intracellularly stored RANTES in response to interferon-gamma in human eosinophils. Blood 1999; 94:23-32). Thus, 100 μL of TMB substrate solution was added to 50 μL=microliters) of sample in a 96-well microplate and incubated at room temperature for 15 min (min=minutes). […]

U937 cells = assay: PMA-stimulated lysozyme secretion by U937 cells; format: cell-based, human; details: 50 μM test peptide, two hour incubation with 100 nM PMA; U937 cells
Method: as §1, §2, §3
Lysozyme secreted by U937 cells was measured using a spectrophotometric assay as described previously (Balboa M A, Saez Y, Balsinde J. Calcium-independent phospholipase A2 is required for lysozyme secretion in U937 promonocytes. J Immunol 2003; 170:5276-5280) with slight modification. Thus, 100 μL of sample was mixed with 100 μL of a Micrococcus lysodeikticus (Sigma-Aldrich Co.) suspension (0.3 mg/ml in 0.1 M sodium phosphate buffer, pH 7.0) in a 96-well microplate. The decrease in absorbance at 450 nm was measured at room temperature. […]

[1] = Qualitative solubility of peptides in 0.5 N saline, pH 6.5

| SMILES | % Inhibition EPO (HL-60 clone 15 cells) [%] | % Inhibition Lysozyme (U937 cells) [%] | solubility [1] [mg/mL] |
| --- | --- | --- | --- |
| CCCCCCCCCCCCCC(=O)N[C@@H](C)C(=O)N[C@@H](CCCCN)C(=O)NCC(=O)N[C@@H](CCC(=O)O)C(=O)O [MA-AKGE, AKGE] (Myristoyl-AKGE-OH; C-terminus assumed) | 0 | 28.6 | < 1 |
| CC(=O)N[C@@H](C)C(=O)N[C@@H](CCCCN)C(=O)NCC(=O)N[C@@H](CCC(=O)O)C(=O)O [Ac-AKGE, AKGE] (Ac-AKGE-OH; C-terminus assumed) | 87.6 | 7.2 | > 200 |
| CCCCCCCCCCCCCC(=O)N[C@H](C(=O)N[C@@H](C)C(=O)N[C@@H](C)C(=O)N[C@@H](CCCCN)C(=O)NCC(=O)N[C@@H](CCC(=O)O)C(=O)N[C@@H](C)C(=O)N[C@@H](C)C(=O)O)[C@@H](C)O [MA-TAAKGEAA, TAAKGEAA] (Myristoyl-TAAKGEAA-OH; C-terminus assumed) | 0 | 80.2 | < 1 |
| CCCCCCCCCCCCCC(=O)N[C@@H](CO)C(=O)N[C@@H](CCCCN)C(=O)N[C@H](C(=O)N[C@@H](C)C(=O)N[C@@H](C)C(=O)N[C@@H](CCCCN)C(=O)NCC(=O)N[C@@H](CCC(=O)O)C(=O)N[C@@H](C)C(=O)N[C@@H](C)C(=O)N[C@@H](C)C(=O)N[C@@H](CCC(=O)O)C(=O)N[C@@H](CCCNC(=N)N)C(=O)N1CCC[C@H]1C(=O)NCC(=O)N[C@@H](CCC(=O)O)C(=O)N[C@@H](C)C(=O)N[C@@H](C)C(=O)N[C@H](C(=O)N[C@@H](C)C(=O)O)C(C)C)[C@@H](C)O (Myristoyl-SKTAAKGEAAAERPGEAAVA-OH; C-terminus assumed) | 0 | 99 | > 80 |
| CC(=O)N[C@@H](C)C(=O)N[C@@H](CCCCN)C(=O)NCC(=O)N[C@@H](CCC(=O)O)C(N)=O [Ac-AKGE-NH2, AKGE] (Ac-AKGE-NH2) | 45.6 | 26.8 | > 200 |
| CC(=O)N[C@@H](C)C(=O)N[C@@H](C)C(=O)NCC(=O)N[C@@H](CCC(=O)O)C(=O)O [Ac-AAGE, AAGE] (Ac-AAGE-OH; C-terminus assumed) | 39.1 | 36.9 | > 200 |
